Assay results: ChEMBL document CHEMBL4017512 (J Med Chem, 2017)

How the values were obtained:
HCT-116 = assay: Antiproliferative activity against human HCT116 cells after 72 hrs by phosphatase assay; assay type: functional, cell-based; settings: HCT-116, 72 h
[1] = Cytotoxicity against human HCT116/VM46 cells assessed as reduction in cell viability after 72 hrs by phosphatase assay; assay type: cell-based; settings: HCT-116/VM46, 72 h
L1210 = assay: Antiproliferative activity against mouse L1210 cells after 72 hrs by phosphatase assay; assay type: functional, cell-based; settings: L1210, 72 h

SMILES: CCC(C)c1ccc(C(=O)N[C@@]2(CC)C[C@H]3CN(CCc4c([nH]c5ccccc45)[C@@](C(=O)OC)(c4cc5c(cc4OC)N(C)[C@H]4[C@@](O)(C(=O)OC)[C@H](OC(C)=O)[C@]6(CC)C=CCN7CC[C@]54[C@@H]76)C3)C2)cc1 (some centres not stated)
- IC50 (HCT-116): 15 nM
- IC50 [1]: 65 nM
- IC50 (L1210): 25 nM

SMILES: CC[C@]1(NC(=O)c2ccc(OC(F)(F)F)cc2)C[C@H]2CN(CCc3c([nH]c4ccccc34)[C@@](C(=O)OC)(c3cc4c(cc3OC)N(C)[C@H]3[C@@](O)(C(=O)OC)[C@H](OC(C)=O)[C@]5(CC)C=CCN6CC[C@]43[C@@H]65)C2)C1
- IC50 (HCT-116): 4.4 nM
- IC50 [1]: 8.4 nM
- IC50 (L1210): 5.9 nM

SMILES: CC[C@]1(NS(=O)(=O)c2cccc3c(N(C)C)cccc23)C[C@H]2CN(CCc3c([nH]c4ccccc34)[C@@](C(=O)OC)(c3cc4c(cc3OC)N(C)[C@H]3[C@@](O)(C(=O)OC)[C@H](OC(C)=O)[C@]5(CC)C=CCN6CC[C@]43[C@@H]65)C2)C1
- IC50 (HCT-116): 30 nM
- IC50 [1]: 60 nM
- IC50 (L1210): 30 nM

SMILES: CC[C@]1(NS(=O)(=O)c2ccccc2[N+](=O)[O-])C[C@H]2CN(CCc3c([nH]c4ccccc34)[C@@](C(=O)OC)(c3cc4c(cc3OC)N(C)[C@H]3[C@@](O)(C(=O)OC)[C@H](OC(C)=O)[C@]5(CC)C=CCN6CC[C@]43[C@@H]65)C2)C1
- IC50 (HCT-116): 420 nM
- IC50 [1]: 440 nM
- IC50 (L1210): 360 nM

SMILES: CC[C@]1(NC(=O)c2ccon2)C[C@H]2CN(CCc3c([nH]c4ccccc34)[C@@](C(=O)OC)(c3cc4c(cc3OC)N(C)[C@H]3[C@@](O)(C(=O)OC)[C@H](OC(C)=O)[C@]5(CC)C=CCN6CC[C@]43[C@@H]65)C2)C1
- IC50 (HCT-116): 7 nM
- IC50 [1]: 90 nM
- IC50 (L1210): 4.5 nM

SMILES: CC[C@]1(NC(=O)c2cnc3ccccc3c2)C[C@H]2CN(CCc3c([nH]c4ccccc34)[C@@](C(=O)OC)(c3cc4c(cc3OC)N(C)[C@H]3[C@@](O)(C(=O)OC)[C@H](OC(C)=O)[C@]5(CC)C=CCN6CC[C@]43[C@@H]65)C2)C1
- IC50 (HCT-116): 0.6 nM
- IC50 [1]: 5.7 nM
- IC50 (L1210): 0.7 nM

SMILES: CC[C@]1(NC(=O)c2ccc3c(c2)CCCCC3)C[C@H]2CN(CCc3c([nH]c4ccccc34)[C@@](C(=O)OC)(c3cc4c(cc3OC)N(C)[C@H]3[C@@](O)(C(=O)OC)[C@H](OC(C)=O)[C@]5(CC)C=CCN6CC[C@]43[C@@H]65)C2)C1
- IC50 (HCT-116): 4.8 nM
- IC50 [1]: 35 nM
- IC50 (L1210): 6.1 nM

SMILES: CC[C@]1(NC(=O)c2ccc(NS(C)(=O)=O)cc2)C[C@H]2CN(CCc3c([nH]c4ccccc34)[C@@](C(=O)OC)(c3cc4c(cc3OC)N(C)[C@H]3[C@@](O)(C(=O)OC)[C@H](OC(C)=O)[C@]5(CC)C=CCN6CC[C@]43[C@@H]65)C2)C1
- IC50 (HCT-116): 0.3 nM
- IC50 [1]: 50 nM
- IC50 (L1210): 0.4 nM

SMILES: CC[C@]1(NC(=O)c2ccc(NC(=O)OC)cc2)C[C@H]2CN(CCc3c([nH]c4ccccc34)[C@@](C(=O)OC)(c3cc4c(cc3OC)N(C)[C@H]3[C@@](O)(C(=O)OC)[C@H](OC(C)=O)[C@]5(CC)C=CCN6CC[C@]43[C@@H]65)C2)C1
- IC50 (HCT-116): 0.8 nM
- IC50 [1]: 55 nM
- IC50 (L1210): 1.5 nM

SMILES: CC[C@]1(NC(=O)c2ccc(OC)c(OC)c2)C[C@H]2CN(CCc3c([nH]c4ccccc34)[C@@](C(=O)OC)(c3cc4c(cc3OC)N(C)[C@H]3[C@@](O)(C(=O)OC)[C@H](OC(C)=O)[C@]5(CC)C=CCN6CC[C@]43[C@@H]65)C2)C1
- IC50 (HCT-116): 0.07 nM
- IC50 [1]: 1.4 nM
- IC50 (L1210): 0.06 nM

SMILES: CC[C@]1(NC(=O)c2ccccc2C(F)(F)F)C[C@H]2CN(CCc3c([nH]c4ccccc34)[C@@](C(=O)OC)(c3cc4c(cc3OC)N(C)[C@H]3[C@@](O)(C(=O)OC)[C@H](OC(C)=O)[C@]5(CC)C=CCN6CC[C@]43[C@@H]65)C2)C1
- IC50 (HCT-116): 60 nM
- IC50 [1]: 540 nM
- IC50 (L1210): 45 nM

SMILES: CCOc1ccc(C(=O)N[C@@]2(CC)C[C@H]3CN(CCc4c([nH]c5ccccc45)[C@@](C(=O)OC)(c4cc5c(cc4OC)N(C)[C@H]4[C@@](O)(C(=O)OC)[C@H](OC(C)=O)[C@]6(CC)C=CCN7CC[C@]54[C@@H]76)C3)C2)cc1Br
- IC50 (HCT-116): 6.2 nM
- IC50 [1]: 50 nM
- IC50 (L1210): 3.9 nM

SMILES: CC[C@]1(NC(=O)c2cccc3ccccc23)C[C@H]2CN(CCc3c([nH]c4ccccc34)[C@@](C(=O)OC)(c3cc4c(cc3OC)N(C)[C@H]3[C@@](O)(C(=O)OC)[C@H](OC(C)=O)[C@]5(CC)C=CCN6CC[C@]43[C@@H]65)C2)C1
- IC50 (HCT-116): 65 nM
- IC50 [1]: 220 nM
- IC50 (L1210): 60 nM

SMILES: CC[C@]1(NC(=O)Cc2ccccc2)C[C@H]2CN(CCc3c([nH]c4ccccc34)[C@@](C(=O)OC)(c3cc4c(cc3OC)N(C)[C@H]3[C@@](O)(C(=O)OC)[C@H](OC(C)=O)[C@]5(CC)C=CCN6CC[C@]43[C@@H]65)C2)C1
- IC50 (HCT-116): 55 nM
- IC50 [1]: 550 nM
- IC50 (L1210): 55 nM

SMILES: CC[C@]1(NC(=O)c2ccccc2F)C[C@H]2CN(CCc3c([nH]c4ccccc34)[C@@](C(=O)OC)(c3cc4c(cc3OC)N(C)[C@H]3[C@@](O)(C(=O)OC)[C@H](OC(C)=O)[C@]5(CC)C=CCN6CC[C@]43[C@@H]65)C2)C1
- IC50 (HCT-116): 7.7 nM
- IC50 [1]: 75 nM
- IC50 (L1210): 8.4 nM

SMILES: CC[C@]1(NC(=O)c2ccc(CN)cc2)C[C@H]2CN(CCc3c([nH]c4ccccc34)[C@@](C(=O)OC)(c3cc4c(cc3OC)N(C)[C@H]3[C@@](O)(C(=O)OC)[C@H](OC(C)=O)[C@]5(CC)C=CCN6CC[C@]43[C@@H]65)C2)C1
- IC50 (HCT-116): 3.5 nM
- IC50 [1]: 470 nM
- IC50 (L1210): 25 nM

SMILES: CC[C@]1(NC(=O)c2ccc(-c3ccccc3)cc2)C[C@H]2CN(CCc3c([nH]c4ccccc34)[C@@](C(=O)OC)(c3cc4c(cc3OC)N(C)[C@H]3[C@@](O)(C(=O)OC)[C@H](OC(C)=O)[C@]5(CC)C=CCN6CC[C@]43[C@@H]65)C2)C1
- IC50 (HCT-116): 5.4 nM
- IC50 [1]: 60 nM
- IC50 (L1210): 5.5 nM

SMILES: CC[C@]1(NC(=O)c2ccc3ccncc3c2)C[C@H]2CN(CCc3c([nH]c4ccccc34)[C@@](C(=O)OC)(c3cc4c(cc3OC)N(C)[C@H]3[C@@](O)(C(=O)OC)[C@H](OC(C)=O)[C@]5(CC)C=CCN6CC[C@]43[C@@H]65)C2)C1
- IC50 (HCT-116): 0.4 nM
- IC50 [1]: 3.7 nM
- IC50 (L1210): 0.4 nM

SMILES: CC[C@]1(NC(=O)c2cccc(SC)c2)C[C@H]2CN(CCc3c([nH]c4ccccc34)[C@@](C(=O)OC)(c3cc4c(cc3OC)N(C)[C@H]3[C@@](O)(C(=O)OC)[C@H](OC(C)=O)[C@]5(CC)C=CCN6CC[C@]43[C@@H]65)C2)C1
- IC50 (HCT-116): 2.3 nM
- IC50 [1]: 20 nM
- IC50 (L1210): 5.4 nM

SMILES: CC[C@]1(NC(=O)c2nc3ccccc3s2)C[C@H]2CN(CCc3c([nH]c4ccccc34)[C@@](C(=O)OC)(c3cc4c(cc3OC)N(C)[C@H]3[C@@](O)(C(=O)OC)[C@H](OC(C)=O)[C@]5(CC)C=CCN6CC[C@]43[C@@H]65)C2)C1
- IC50 (HCT-116): 80 nM
- IC50 [1]: 470 nM
- IC50 (L1210): 180 nM

SMILES: CC[C@]1(NC(=O)c2ccc(S(=O)(=O)F)cc2)C[C@H]2CN(CCc3c([nH]c4ccccc34)[C@@](C(=O)OC)(c3cc4c(cc3OC)N(C)[C@H]3[C@@](O)(C(=O)OC)[C@H](OC(C)=O)[C@]5(CC)C=CCN6CC[C@]43[C@@H]65)C2)C1
- IC50 (HCT-116): 30 nM
- IC50 [1]: 310 nM
- IC50 (L1210): 20 nM

SMILES: CC[C@]1(NC(=O)c2ccc3c(c2)CCN3C(=O)OC(C)(C)C)C[C@H]2CN(CCc3c([nH]c4ccccc34)[C@@](C(=O)OC)(c3cc4c(cc3OC)N(C)[C@H]3[C@@](O)(C(=O)OC)[C@H](OC(C)=O)[C@]5(CC)C=CCN6CC[C@]43[C@@H]65)C2)C1
- IC50 (HCT-116): 15 nM
- IC50 [1]: 90 nM
- IC50 (L1210): 35 nM

SMILES: CC[C@]1(NC(=O)c2ccc(OC(F)(F)F)c(OC)c2)C[C@H]2CN(CCc3c([nH]c4ccccc34)[C@@](C(=O)OC)(c3cc4c(cc3OC)N(C)[C@H]3[C@@](O)(C(=O)OC)[C@H](OC(C)=O)[C@]5(CC)C=CCN6CC[C@]43[C@@H]65)C2)C1
- IC50 (HCT-116): 1.7 nM
- IC50 [1]: 6.9 nM
- IC50 (L1210): 1.3 nM

SMILES: CC[C@]1(NC(=O)c2coc3ccccc23)C[C@H]2CN(CCc3c([nH]c4ccccc34)[C@@](C(=O)OC)(c3cc4c(cc3OC)N(C)[C@H]3[C@@](O)(C(=O)OC)[C@H](OC(C)=O)[C@]5(CC)C=CCN6CC[C@]43[C@@H]65)C2)C1
- IC50 (HCT-116): 4.6 nM
- IC50 [1]: 35 nM
- IC50 (L1210): 4 nM

SMILES: CC[C@]1(NC(=O)c2cccc(C(F)(F)F)c2)C[C@H]2CN(CCc3c([nH]c4ccccc34)[C@@](C(=O)OC)(c3cc4c(cc3OC)N(C)[C@H]3[C@@](O)(C(=O)OC)[C@H](OC(C)=O)[C@]5(CC)C=CCN6CC[C@]43[C@@H]65)C2)C1
- IC50 (HCT-116): 6.4 nM
- IC50 [1]: 40 nM
- IC50 (L1210): 6.2 nM

SMILES: CC[C@]1(NC(=O)c2ccnnc2)C[C@H]2CN(CCc3c([nH]c4ccccc34)[C@@](C(=O)OC)(c3cc4c(cc3OC)N(C)[C@H]3[C@@](O)(C(=O)OC)[C@H](OC(C)=O)[C@]5(CC)C=CCN6CC[C@]43[C@@H]65)C2)C1
- IC50 (HCT-116): 9 nM
- IC50 [1]: 700 nM
- IC50 (L1210): 30 nM

SMILES: CC[C@]1(NC(=O)c2ccc(Cl)c(Cl)c2)C[C@H]2CN(CCc3c([nH]c4ccccc34)[C@@](C(=O)OC)(c3cc4c(cc3OC)N(C)[C@H]3[C@@](O)(C(=O)OC)[C@H](OC(C)=O)[C@]5(CC)C=CCN6CC[C@]43[C@@H]65)C2)C1
- IC50 (HCT-116): 8.7 nM
- IC50 [1]: 80 nM
- IC50 (L1210): 8.5 nM

SMILES: CC[C@]1(NC(=O)c2ccc(OC(C)(C)C)cc2)C[C@H]2CN(CCc3c([nH]c4ccccc34)[C@@](C(=O)OC)(c3cc4c(cc3OC)N(C)[C@H]3[C@@](O)(C(=O)OC)[C@H](OC(C)=O)[C@]5(CC)C=CCN6CC[C@]43[C@@H]65)C2)C1
- IC50 (HCT-116): 0.6 nM
- IC50 [1]: 6.8 nM
- IC50 (L1210): 0.6 nM

SMILES: CC[C@]1(NC(=O)c2ccc3cc(N)ccc3c2)C[C@H]2CN(CCc3c([nH]c4ccccc34)[C@@](C(=O)OC)(c3cc4c(cc3OC)N(C)[C@H]3[C@@](O)(C(=O)OC)[C@H](OC(C)=O)[C@]5(CC)C=CCN6CC[C@]43[C@@H]65)C2)C1
- IC50 (HCT-116): 0.8 nM
- IC50 [1]: 7.4 nM
- IC50 (L1210): 0.7 nM
